Experimental data as given in publication PMC10518257 (Nature Cancer, 2023).
Values joined by “and” are separate entries in the source; they are usually repeats but may differ in a detail not shown here. Identical values can stand only once. Like-named read-outs stand apart in the source and are kept apart here.

Legend:
[1] = system: Ba/F3 KIF5B–RET^WT allograft tumors; assay: Subcutaneous allograft efficacy study; format: in vivo, BALB/c nude mice
Ba/F3-CCDC6::RET^S904F = assay: Growth inhibition assay in Ba/F3 cells (CellTiter-Glo, 72 h); format: cell-based
TT cells = assay: Growth inhibition (alamarBlue, 96 h); format: cell-based, human; conditions: for raw viability signal (Source Data Fig. 3b-c): replicate sets
LUAD-0077AS1 PDX = assay: PDX efficacy study; format: in vivo, NSG mice; set-up: Tumor volume: unit not given here; conditions: for Area Under Curve Mean: Fig. 6b LUAD-0077AS1 tumor growth; for Change in tumor volume (block without heading, Fig. 6b) / Tumor volume: LUAD-0077AS1, individual animals
MMNK1 cholangiocytes = assay: Growth inhibition (alamarBlue, 96 h); format: cell-based, human; conditions: MMNK, replicates
LUAD-0086AS3 cells = assay: Growth inhibition (alamarBlue, 96 h); format: cell-based, human; conditions: for raw viability signal (Source Data Fig. 3b-c): LUAD-0086AS3 (n=1, 3 replicates)
[2] = Homo sapiens, 96 h, read-out: IC50 for Inhibition of Growth (95% CI)

In the case of `COCc1ccc(NC(=O)c2c(C#CCN3CCOCC3)n(C3(C)CC3)c3ncnc(N)c23)cc1` [Vepafestinib, 4-amino-N-[4-(methoxymethyl)phenyl]-7-(1-methylcyclopropyl)-6-[3-(morpholin-4-yl)prop-1-yn-1-yl]-7H-pyrrolo[2,3-d]pyrimidine-5-carboxamide], the “Tumor Volume Mean” value ([1]; Ba/F3-KIF5B::RET, 50 mg/kg BID, Day 15, Ext. Data Fig. 9a) is reported as 80.54 mm3, the “Tumor Volume Mean” value ([1]; Ba/F3-KIF5B::RET, 50 mg/kg BID, Day 15, Ext. Data Fig. 9b) is reported as 131.30 mm3 and the “Tumor Volume Mean” value ([1]; Fig. 7a Ba/F3-KIF5B::RET, 25 mg/kg BID, day 0, in mm³ (unit assumed)) is reported as 186.18. The “Tumor Volume Mean” value ([1]; Fig. 7a Ba/F3-KIF5B::RET, 25 mg/kg BID, day 4, in mm³ (unit assumed)) was 191.92, the “Tumor Volume Mean” value ([1]; Fig. 7a Ba/F3-KIF5B::RET, 25 mg/kg BID, day 8, in mm³ (unit assumed)) was 184.92 and the “Tumor Volume Mean” value ([1]; Fig. 7a Ba/F3-KIF5B::RET, 25 mg/kg BID, day 11, in mm³ (unit assumed)) was 174.38. For the same compound, the “Tumor Volume Mean” value ([1]; Fig. 7a Ba/F3-KIF5B::RET, 25 mg/kg BID, day 15, in mm³ (unit assumed)) was 165.09, the “Tumor Volume Mean” value ([1]; Fig. 7a Ba/F3-KIF5B::RET, 50 mg/kg BID, day 0, in mm³ (unit assumed)) was 187.80 and the “Tumor Volume Mean” value ([1]; Fig. 7a Ba/F3-KIF5B::RET, 50 mg/kg BID, day 4, in mm³ (unit assumed)) was 184.99. For the same compound, the “Tumor Volume Mean” value ([1]; Fig. 7a Ba/F3-KIF5B::RET, 50 mg/kg BID, day 8, in mm³ (unit assumed)) was 148.12, the “Tumor Volume Mean” value ([1]; Fig. 7a Ba/F3-KIF5B::RET, 50 mg/kg BID, day 11, in mm³ (unit assumed)) was 106.67 and the “Tumor Volume Mean” value ([1]; Fig. 7a Ba/F3-KIF5B::RET, 50 mg/kg BID, day 15, in mm³ (unit assumed)) was 83.29. The GI50 (Ba/F3-CCDC6::RET^S904F; BaF3/CCDC6-RET, read-out: GI50 values, Ba/F3-CCDC6::RET S904F, individual sets (replicate experiments)) was 28.5 nM, the GI50 (Ba/F3-CCDC6::RET^S904F; Mus musculus, BaF3, 72 h, read-out: GI50 value (Mean ± SD), Ba/F3-CCDC6::RET^S904F, CellTiter-Glo, 72 h) was 24.7 ± 5 nM and the GI50 (Ba/F3-CCDC6::RET^S904F; read-out: GI50 values, Ba/F3-CCDC6::RET S904F, individual sets (replicate experiments)) was 26.7 nM and 19.1 nM. The “raw viability signal (Source Data Fig. 3b-c)” value (from here on “raw viability signal”) (TT cells; 0.01 nM) was 22992.9 and 26706 and 26833.9 and 13728.7 and 29403.6, the “raw viability signal” value (TT cells; 0.1 nM) was 22728 and 26400.4 and 33154.7 and 10987.6 and 26655.8 and the “raw viability signal” value (TT cells; 1 nM) was 22046.8 and 26424.3 and 31146.9 and 10280.3 and 23063. For the same compound, the “raw viability signal” value (TT cells; 10 nM) was 18366.2 and 23539.3 and 23168.9 and 8667.42 and 19947.5, the “raw viability signal” value (TT cells; 100 nM) was 10434.7 and 14002.8 and 12336.3 and 4688.9 and 15375.8 and the “raw viability signal” value (TT cells; 1000 nM) was 10759 and 11509.2 and 9437.03 and 4745.5 and 14900.8. The “raw viability signal” value (TT cells; 10000 nM) was 11538.8 and 12388.7 and 14343.9 and 2691.86 and 17063, the IC50 (TT cells; [2]) was 24 nM and the “Area Under Curve Mean” value (LUAD-0077AS1 PDX; 50 mg/kg BID) was 728.7. For the same compound, the “Area Under Curve Mean” value (LUAD-0077AS1 PDX; 100 mg/kg QD) was 549, the “Change in tumor volume (block without heading, Fig. 6b)” value (LUAD-0077AS1 PDX; 50 mg/kg BID) was 60.867 and 57.9883 and 49.0287 and 27.5983 and 23.1229 and the Tumor volume (LUAD-0077AS1 PDX; 50 mg/kg BID, treatment day 0) was 82.36 (2×) and 88.7 and 83.97 and 85.5. The Tumor volume (LUAD-0077AS1 PDX; 50 mg/kg BID, treatment day 4) was 85.5 (3×) and 82.36 and 83.97, the Tumor volume (LUAD-0077AS1 PDX; 50 mg/kg BID, treatment day 7) was 80.89 (2×) and 82.36 (2×) and 85.5 and the Tumor volume (LUAD-0077AS1 PDX; 50 mg/kg BID, treatment day 11) was 80.89 (3×) and 74.9 and 77.87. For the same compound, the Tumor volume (LUAD-0077AS1 PDX; 50 mg/kg BID, treatment day 14) was 95.03 and 87.03 and 102.07 (3×), the Tumor volume (LUAD-0077AS1 PDX; 50 mg/kg BID, treatment day 19) was 105.09 and 109.21 and 122.74 and 135.08 (2×) and the Tumor volume (LUAD-0077AS1 PDX; 50 mg/kg BID, treatment day 22) was 186.96 and 181.98 and 192.42 and 159.66 and 197.96. The Tumor volume (LUAD-0077AS1 PDX; 50 mg/kg BID, treatment day 25) was 232.25 (2×) and 250.35 (2×) and 247.99, the “Change in tumor volume (block without heading, Fig. 6b)” value (LUAD-0077AS1 PDX; 100 mg/kg QD) was 67.7861 and 60.2113 and 54.3275 and 44.2105 and 25.5424 and the Tumor volume (LUAD-0077AS1 PDX; 100 mg/kg QD, treatment day 0) was 82.36 and 83.97 and 87.11 and 85.5 (2×). For the same compound, the Tumor volume (LUAD-0077AS1 PDX; 100 mg/kg QD, treatment day 4) was 85.5 (2×) and 83.97 (2×) and 88.7, the Tumor volume (LUAD-0077AS1 PDX; 100 mg/kg QD, treatment day 7) was 82.36 and 72.18 and 79.42 and 77.87 and 79.29 and the Tumor volume (LUAD-0077AS1 PDX; 100 mg/kg QD, treatment day 11) was 79.29 (2×) and 65.37 and 72.18 and 77.87. For the same compound, the Tumor volume (LUAD-0077AS1 PDX; 100 mg/kg QD, treatment day 14) was 114.83 and 111.18 and 83.83 (3×), the Tumor volume (LUAD-0077AS1 PDX; 100 mg/kg QD, treatment day 19) was 131.95 (2×) and 140.89 and 109.36 and 123.3 and the Tumor volume (LUAD-0077AS1 PDX; 100 mg/kg QD, treatment day 22) was 136.38 and 156.56 and 135.08 and 138.33 and 147.55. For the same compound, the Tumor volume (LUAD-0077AS1 PDX; 100 mg/kg QD, treatment day 25) was 213.8 and 205.8 and 189.86 and 177.9 and 205.88, the “raw viability signal” value (MMNK1 cholangiocytes; 0.01 nM) was 15390 and 15865.6 and the “raw viability signal” value (MMNK1 cholangiocytes; 0.1 nM) was 14815.4 and 16483.3. For the same compound, the “raw viability signal” value (MMNK1 cholangiocytes; 1 nM) was 13973.1 and 15595, the “raw viability signal” value (MMNK1 cholangiocytes; 10 nM) was 13948.4 and 14647.6 and the “raw viability signal” value (MMNK1 cholangiocytes; 100 nM) was 13576.5 and 14248.6. The “raw viability signal” value (MMNK1 cholangiocytes; 1000 nM) was 9712.9 and 10190.9, the “raw viability signal” value (MMNK1 cholangiocytes; 10000 nM) was 13883.8 and 13507.1 and the IC50 (LUAD-0086AS3 cells; [2]) was 116 nM. The “raw viability signal” value (LUAD-0086AS3 cells; 0.01 nM) was 16237.2 and 19485.2 and 18210.6, the “raw viability signal” value (LUAD-0086AS3 cells; 0.1 nM) was 16457.6 and 20449.8 and 20222 and the “raw viability signal” value (LUAD-0086AS3 cells; 1 nM) was 16743.2 and 19056.2 and 19367.3. The “raw viability signal” value (LUAD-0086AS3 cells; 10 nM) was 12680.1 and 18071 and 16933, the “raw viability signal” value (LUAD-0086AS3 cells; 100 nM) was 5830.14 and 9884.36 and 9286.4 and the “raw viability signal” value (LUAD-0086AS3 cells; 1000 nM) was 6803.13 and 8603.1 and 8594.97. The “raw viability signal” value (LUAD-0086AS3 cells; 10000 nM) was 3602.32 and 4605.44 and 4993.57.
